System: microfilariae of Dirofilaria immitis
Assay: Dirofilaria immitis, Microfilaria (DiMF) In vitro Assay
Format: cell-based
Conditions: 72 h, read-out: DiMF Minimum Effective Dose (MED), approximately 72 hours incubation, microfilariae assessed for survival or paralysis

Compound	minimal effective concentration
CCOc1cc(CC)nn1Cc1ccc(C[C@H]2OC(=O)[C@H](CC(C)C)N(C)C(=O)[C@@H](C)OC(=O)[C@H](CC(C)C)N(C)C(=O)[C@@H](Cc3ccc(Cn4nc(CC)cc4OCC)cc3)OC(=O)[C@H](CC(C)C)N(C)C(=O)[C@@H](C)OC(=O)[C@H](CC(C)C)N(C)C2=O)cc1 [Example 1b-169, (3S,6R,9S,12R,15S,18R,21S,24R)-6,18-bis(4-((5-ethoxy-3-ethyl-1H-pyrazol-1-yl)methyl)benzyl)-3,9,15,21-tetraisobutyl-4,10,12,16,22,24-hexamethyl-1,7,13,19-tetraoxa-4,10,16,22-tetraazacyclotetracosan-2,5,8,11,14,17,20,23-octaone]	0.01 to 0.1 µM
CCOc1cc(C2CC2)nn1Cc1ccc(C[C@H]2OC(=O)[C@H](CC(C)C)N(C)C(=O)[C@@H](C)OC(=O)[C@H](CC(C)C)N(C)C(=O)[C@@H](Cc3ccc(Cn4nc(C5CC5)cc4OCC)cc3)OC(=O)[C@H](CC(C)C)N(C)C(=O)[C@@H](C)OC(=O)[C@H](CC(C)C)N(C)C2=O)cc1 [Example 1b-170, (3S,6R,9S,12R,15S,18R,21S,24R)-6,18-bis(4-((3-cyclopropyl-5-ethoxy-1H-pyrazol-1-yl)methyl)benzyl)-3,9,15,21-tetraisobutyl-4,10,12,16,22,24-hexamethyl-1,7,13,19-tetraoxa-4,10,16,22-tetraazacyclotetracosan-2,5,8,11,14,17,20,23-octaone]	0.01 to 0.1 µM
CC(C)C[C@H]1C(=O)O[C@H](Cc2ccc(Cn3cc(N4CCCCC4)cn3)cc2)C(=O)N(C)[C@@H](CC(C)C)C(=O)O[C@H](C)C(=O)N(C)[C@@H](CC(C)C)C(=O)O[C@H](Cc2ccc(Cn3cc(N4CCCCC4)cn3)cc2)C(=O)N(C)[C@@H](CC(C)C)C(=O)O[C@H](C)C(=O)N1C [Example 1b-183, (3S,6R,9S,12R,15S,18R,21S,24R)-3,9,15,21-tetraisobutyl-4,6,10,16,18,22-hexamethyl-12,24-bis(4-((4-(piperidin-1-yl)-1H-pyrazol-1-yl)methyl)benzyl)-1,7,13,19-tetraoxa-4,10,16,22-tetraazacyclotetracosan-2,5,8,11,14,17,20,23-octaone]	0.01 to 0.1 µM
CC(C)C[C@H]1C(=O)O[C@H](Cc2ccc(Cn3cc(OCCN)cn3)cc2)C(=O)N(C)[C@@H](CC(C)C)C(=O)O[C@H](C)C(=O)N(C)[C@@H](CC(C)C)C(=O)O[C@H](Cc2ccc(Cn3cc(OCCN)cn3)cc2)C(=O)N(C)[C@@H](CC(C)C)C(=O)O[C@H](C)C(=O)N1C [Example 1b-185, (3S,6R,9S,12R,15S,18R,21S,24R)-6,18-bis(4-((4-(2-aminoethoxy)-1H-pyrazol-1-yl)methyl)benzyl)-3,9,15,21-tetraisobutyl-4,10,12,16,22,24-hexamethyl-1,7,13,19-tetraoxa-4,10,16,22-tetraazacyclotetracosan-2,5,8,11,14,17,20,23-octaone]	0.01 to 0.1 µM
Cc1nn(Cc2ccc(C[C@H]3OC(=O)[C@H](CC(C)C)N(C)C(=O)[C@@H](C)OC(=O)[C@H](CC(C)C)N(C)C(=O)[C@@H](Cc4ccc(Cn5nc(C)c(OC(C)C)c5C)cc4)OC(=O)[C@H](CC(C)C)N(C)C(=O)[C@@H](C)OC(=O)[C@H](CC(C)C)N(C)C3=O)cc2)c(C)c1OC(C)C [Example 1b-188, (3S,6R,9S,12R,15S,18R,21S,24R)-3,9,15,21-tetraisobutyl-6,18-bis(4-((4-isopropoxy-3,5-dimethyl-1H-pyrazol-1-yl)methyl)benzyl)-4,10,12,16,22,24-hexamethyl-1,7,13,19-tetraoxa-4,10,16,22-tetraazacyclotetracosan-2,5,8,11,14,17,20,23-octaone]	0.01 to 0.1 µM
CCOc1c(C)nn(Cc2ccc(C[C@H]3OC(=O)[C@H](CC(C)C)N(C)C(=O)[C@@H](C)OC(=O)[C@H](CC(C)C)N(C)C(=O)[C@@H](Cc4ccc(Cn5nc(C)c(OCC)c5C)cc4)OC(=O)[C@H](CC(C)C)N(C)C(=O)[C@@H](C)OC(=O)[C@H](CC(C)C)N(C)C3=O)cc2)c1C [Example 1b-191, (3S,6R,9S,12R,15S,18R,21S,24R)-6,18-bis(4-((4-ethoxy-3,5-dimethyl-1H-pyrazol-1-yl)methyl)benzyl)-3,9,15,21-tetraisobutyl-4,10,12,16,22,24-hexamethyl-1,7,13,19-tetraoxa-4,10,16,22-tetraazacyclotetracosan-2,5,8,11,14,17,20,23-octaone]	0.01 to 0.1 µM
CC(C)C[C@H]1C(=O)O[C@H](Cc2ccc(Cn3ccc(-c4cnccn4)n3)cc2)C(=O)N(C)[C@@H](CC(C)C)C(=O)O[C@H](C)C(=O)N(C)[C@@H](CC(C)C)C(=O)O[C@H](Cc2ccc(Cn3ccc(-c4cnccn4)n3)cc2)C(=O)N(C)[C@@H](CC(C)C)C(=O)O[C@H](C)C(=O)N1C [Example 1b-195, (3S,6R,9S,12R,15S,18R,21S,24R)-3,9,15,21-tetraisobutyl-4,6,10,16,18,22-hexamethyl-12,24-bis[[4-[(3-pyrazin-2-ylpyrazol-1-yl)methyl]phenyl]methyl]-1,7,13,19-tetraoxa-4,10,16,22-tetrazacyclotetracosane-2,5,8,11,14,17,20,23-octaone]	0.01 to 0.1 µM
CCOc1cn(Cc2ccc(C[C@H]3OC(=O)[C@H](CC(C)C)N(C)C(=O)[C@@H](C)OC(=O)[C@H](CC(C)C)N(C)C(=O)[C@@H](Cc4ccc(Cn5cc(OCC)c(C)n5)cc4)OC(=O)[C@H](CC(C)C)N(C)C(=O)[C@@H](C)OC(=O)[C@H](CC(C)C)N(C)C3=O)cc2)nc1C [Example 1b-198, (3S,6R,9S,12R,15S,18R,21S,24R)-6,18-bis[[4-[(4-ethoxy-3-methyl-pyrazol-1-yl)methyl]phenyl]methyl]-3,9,15,21-tetraisobutyl-4,10,12,16,22,24-hexamethyl-1,7,13,19-tetraoxa-4,10,16,22-tetrazacyclotetracosane-2,5,8,11,14,17,20,23-octaone]	0.01 to 0.1 µM
Cc1nn(Cc2ccc(C[C@H]3OC(=O)[C@H](CC(C)C)N(C)C(=O)[C@@H](C)OC(=O)[C@H](CC(C)C)N(C)C(=O)[C@@H](Cc4ccc(Cn5cc(OC(C)C)c(C)n5)cc4)OC(=O)[C@H](CC(C)C)N(C)C(=O)[C@@H](C)OC(=O)[C@H](CC(C)C)N(C)C3=O)cc2)cc1OC(C)C [Example 1b-199, (3S,6R,9S,12R,15S,18R,21S,24R)-3,9,15,21-tetraisobutyl-6,18-bis[[4-[(4-isopropoxy-3-methyl-pyrazol-1-yl)methyl]phenyl]methyl]-4,10,12,16,22,24-hexamethyl-1,7,13,19-tetraoxa-4,10,16,22-tetrazacyclotetracosane-2,5,8,11,14,17,20,23-octaone]	0.01 to 0.1 µM
CC(C)C[C@H]1C(=O)O[C@H](Cc2ccc(Cn3nccc3C3(N)CC3)cc2)C(=O)N(C)[C@@H](CC(C)C)C(=O)O[C@H](C)C(=O)N(C)[C@@H](CC(C)C)C(=O)O[C@H](Cc2ccc(Cn3nccc3C3(N)CC3)cc2)C(=O)N(C)[C@@H](CC(C)C)C(=O)O[C@H](C)C(=O)N1C [Example 1b-218, (3S,6R,9S,12R,15S,18R,21S,24R)-6,18-bis(4-((5-(1-aminocyclopropyl)-1H-pyrazol-1-yl)methyl)benzyl)-3,9,15,21-tetraisobutyl-4,10,12,16,22,24-hexamethyl-1,7,13,19-tetraoxa-4,10,16,22-tetraazacyclotetracosan-2,5,8,11,14,17,20,23-octaone]	0.01 to 0.1 µM

Reference: patent publication US11331369B2, “Endoparasitic depsipeptides” (Zoetis Services LLC, priority 2017, dated 2022)
